The results in this text go back to patent US10287305B2, “Substituted piperidine compound and use thereof” (Takeda Pharmaceutical Company Limited, priority 2016, dated 2019).

In this assay the target is human orexin type 2 receptor (hOX2R) (Homo sapiens (Human), UniProt O43614). The assay can be described thus: Measurement of orexin type 2 receptor agonist activity (Experimental Example 2-1, FLIPR TETRA, intracellular Ca2+). It counts as cell-based. The settings on record: CHO dhfr- cells expressing hOX2R; for Emax at 30 µM: value at 30 uM concentration, orexin B as full agonist = 100%; for Emax: read-out: Emax (%).

The mark [1] stands for this setting: agonist activity, 10 nM human orexin B = 100%.

The EC50 is the concentration giving half of the maximal effect. Higher therefore signals a less potent agent. A word on the Emax: it is the maximal effect, on the per cent scale that the assay sets.

human orexin type 2 receptor (hOX2R), sequence (O43614 whole entry): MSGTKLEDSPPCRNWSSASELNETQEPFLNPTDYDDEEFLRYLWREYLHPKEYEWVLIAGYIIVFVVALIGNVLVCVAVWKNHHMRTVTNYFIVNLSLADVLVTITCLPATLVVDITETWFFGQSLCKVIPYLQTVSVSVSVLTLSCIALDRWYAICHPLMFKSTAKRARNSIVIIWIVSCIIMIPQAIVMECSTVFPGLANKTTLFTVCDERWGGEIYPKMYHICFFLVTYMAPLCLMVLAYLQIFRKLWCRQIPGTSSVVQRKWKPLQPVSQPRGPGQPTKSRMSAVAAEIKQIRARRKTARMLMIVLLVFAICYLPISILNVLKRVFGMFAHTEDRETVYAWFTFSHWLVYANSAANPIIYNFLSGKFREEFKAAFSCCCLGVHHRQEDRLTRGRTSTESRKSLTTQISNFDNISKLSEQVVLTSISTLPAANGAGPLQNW

`Cc1nc(S(=O)(=O)N2CCC[C@H](NS(C)(=O)=O)[C@@H]2CO[C@H]2CC[C@@H](C(C)C)CC2)cn1C` (relative stereo) [Example 65, N-(cis-1-((1,2-dimethyl-1H-imidazol-4-yl)sulfonyl)-2-(((cis-4-isopropylcyclohexyl)oxy)methyl)piperidin-3-yl)methanesulfonamide]: the Emax at 30 µM was determined as 95%. Moreover, a half-maximal effect under setting [1] (EC50) was put at 1300 nM. `CS(=O)(=O)N[C@H]1CCCN(C(=O)CC2CC2)[C@H]1COC1CCN(c2ccccc2F)CC1` (relative stereo) [Example 226, N-(cis-1-(cyclopropylacetyl)-2-(((1-(2-fluorophenyl)piperidin-4-yl)oxy)methyl)piperidin-3-yl)methanesulfonamide]: for the setting “FLIPR TETRA, Fluo-4AM”, the EC50 came out at 2200 nM and the Emax stood at 86%.

`COc1ccccc1[C@H]1CC[C@@H](OC[C@H]2[C@@H](NS(C)(=O)=O)CCCN2C(=O)C2CC2)CC1` [Example 28, N-((2R,3S)-1-(cyclopropylcarbonyl)-2-(((cis-4-(2-methoxyphenyl)cyclohexyl)oxy)methyl)piperidin-3-yl)methanesulfonamide] gave an Emax at 30 µM of 96%. For the same molecule, it took 2.7 nM to reach a half-maximal effect under setting [1] (EC50). Take `CCNC(=O)N1CCC[C@H](NS(C)(=O)=O)[C@@H]1CO[C@H]1CC[C@@H](c2ccn(C)n2)CC1` (relative stereo) [Example 159, cis-N-ethyl-2-(((cis-4-(1-methyl-1H-pyrazol-3-yl)cyclohexyl)oxy)methyl)-3-((methylsulfonyl)amino)piperidine-1-carboxamide]: for the setting “FLIPR TETRA, Fluo-4AM”, the EC50 was 140 nM and the Emax came out at 96%.

As to `CCNC(=O)N1CCC[C@H](NS(C)(=O)=O)[C@@H]1COC1CCN(c2ccccc2F)CC1` (relative stereo) [Example 195, cis-N-ethyl-2-(((1-(2-fluorophenyl)piperidin-4-yl)oxy)methyl)-3-((methylsulfonyl)amino)piperidine-1-carboxamide], for the setting “FLIPR TETRA, Fluo-4AM”, the response was half-maximal at 250 nM (EC50) and the Emax stood at 102%.

`CNC(=O)N1CCC[C@H](NS(C)(=O)=O)[C@@H]1CO[C@H]1CC[C@@H](C(C)C)CC1` [Example 102, (2R,3S)-2-(((cis-4-isopropylcyclohexyl)oxy)methyl)-N-methyl-3-((methylsulfonyl)amino)piperidine-1-carboxamide] returned an Emax at 30 µM of 101%. Under setting [1], the response was half-maximal at 1.2 nM (EC50). With `CC(=O)N1CCC[C@H](NS(C)(=O)=O)[C@@H]1CO[C@H]1CC[C@@H](c2ccn(C)n2)CC1` (relative stereo) [Example 158, N-(cis-1-acetyl-2-(((cis-4-(1-methyl-1H-pyrazol-3-yl)cyclohexyl)oxy)methyl)piperidin-3-yl)methanesulfonamide], for the setting “FLIPR TETRA, Fluo-4AM”, the response was half-maximal at 1600 nM (EC50) and the Emax came out at 83%. The matching figures for `CS(=O)(=O)N[C@H]1CCCN(C(=O)C2CC2)[C@H]1CO[C@H]1CC[C@@H](c2ncccn2)CC1` (relative stereo) [Example 328, N-(cis-1-(cyclopropylcarbonyl)-2-(((cis-4-(pyrimidin-2-yl)cyclohexyl)oxy)methyl)piperidin-3-yl)methanesulfonamide]: 7100 nM and 72%.

Take `CS(=O)(=O)N[C@H]1CCCN[C@H]1CO[C@H]1CC[C@@H](c2ccc(F)cc2F)CC1` (relative stereo) [Example 142, N-(cis-2-(((cis-4-(2,4-difluorophenyl)cyclohexyl)oxy)methyl)piperidin-3-yl)methanesulfonamide]: where the note is “FLIPR TETRA, Fluo-4AM”, the EC50 was 4000 nM and the Emax amounted to 96%. In turn, `CS(=O)(=O)N[C@H]1CCCN[C@H]1CO[C@H]1CC[C@@H](c2cccc(F)c2F)CC1` [Example 18, N-((2R,3S)-2-(((cis-4-(2,3-difluorophenyl)cyclohexyl)oxy)methyl)piperidin-3-yl)methanesulfonamide] returned an Emax at 30 µM of 96%. In addition, under setting [1], the EC50 was found to be 520 nM. The matching figures for `CC(C)NC(=O)N1CCC[C@H](NS(C)(=O)=O)[C@@H]1CO[C@H]1CC[C@@H](C(C)C)CC1` (relative stereo) [Example 101, cis-N-isopropyl-2-(((cis-4-isopropylcyclohexyl)oxy)methyl)-3-((methylsulfonyl)amino)piperidine-1-carboxamide]: 115% and 2.3 nM. `CS(=O)(=O)N[C@H]1CCCN[C@H]1CO[C@H]1CC[C@@H](c2ccccc2F)CC1` [Example 260, N-((2R,3S)-2-(((cis-4-(2-fluorophenyl)cyclohexyl)oxy)methyl)piperidin-3-yl)methanesulfonamide]: for the setting “FLIPR TETRA, Fluo-4AM”, the EC50 worked out at 550 nM and the Emax was 99%. Regarding `CS(=O)(=O)N[C@H]1CCCN(C(=O)CO)[C@H]1CO[C@H]1CC[C@@H](c2cccc(F)c2F)CC1` [Example 25, N-((2R,3S)-2-(((cis-4-(2,3-difluorophenyl)cyclohexyl)oxy)methyl)-1-glycoloylpiperidin-3-yl)methanesulfonamide], the Emax at 30 µM was 94%. The EC50 under setting [1] was found to be 7.9 nM. `CC(C)OC(=O)N1CCC[C@H](NS(C)(=O)=O)[C@@H]1CO[C@H]1CC[C@@H](c2cccc(F)c2)CC1` [Example 264, isopropyl (2R,3S)-2-(((cis-4-(3-fluorophenyl)cyclohexyl)oxy)methyl)-3-((methylsulfonyl)amino)piperidine-1-carboxylate]: for the setting “FLIPR TETRA, Fluo-4AM”, the EC50 is 21 nM and the Emax came out at 91%.

The molecule `CS(=O)(=O)N[C@H]1CCCN(C(=O)C2CC2)[C@H]1CO[C@H]1CC[C@@H](c2ccccc2)CC1` [Example 31, N-((2R,3S)-1-(cyclopropylcarbonyl)-2-(((cis-4-phenylcyclohexyl)oxy)methyl)piperidin-3-yl)methanesulfonamide] came in with an Emax at 30 µM of 95%. Under setting [1], this molecule showed an EC50 of 0.66 nM. The matching figures for `CCS(=O)(=O)N[C@H]1CCCN(C(=O)Nc2ccccc2)[C@H]1CO[C@H]1CC[C@@H](C)CC1` (relative stereo) [Example 37, cis-3-((ethylsulfonyl)amino)-2-(((cis-4-methylcyclohexyl)oxy)methyl)-N-phenylpiperidine-1-carboxamide]: 97% and 880 nM. Take `CCNC(=O)N1CCC[C@H](NS(C)(=O)=O)[C@@H]1CO[C@H]1CC[C@@H](C)CC1` (relative stereo) [Example 129, cis-N-ethyl-2-(((cis-4-methylcyclohexyl)oxy)methyl)-3-((methylsulfonyl)amino)piperidine-1-carboxamide]: under “FLIPR TETRA, Fluo-4AM”, it took 39 nM to reach a half-maximal effect (EC50) and the Emax was 96%. Turning to `CC(C)[C@H]1CC[C@@H](OC[C@H]2[C@@H](NS(C)(=O)=O)CCCN2S(=O)(=O)C2CC2)CC1` (relative stereo) [Example 62, N-(cis-1-(cyclopropylsulfonyl)-2-(((cis-4-isopropylcyclohexyl)oxy)methyl)piperidin-3-yl)methanesulfonamide], the Emax at 30 µM amounted to 93%. Moreover, under setting [1], the EC50 amounted to 2300 nM. For `CCC(=O)N1CCC[C@H](NS(C)(=O)=O)[C@@H]1COC1CCN(c2ccccc2F)CC1` (relative stereo) [Example 219, N-(cis-2-(((1-(2-fluorophenyl)piperidin-4-yl)oxy)methyl)-1-propionylpiperidin-3-yl)methanesulfonamide], under “FLIPR TETRA, Fluo-4AM”, the EC50 was 3000 nM and the Emax worked out at 91%. The matching figures for `COC(=O)N1CCC[C@H](NS(C)(=O)=O)[C@@H]1CO[C@H]1CC[C@@H](c2cccc(OC)c2)CC1` (relative stereo) [Example 270, methyl cis-2-(((cis-4-(3-methoxyphenyl)cyclohexyl)oxy)methyl)-3-((methylsulfonyl)amino)piperidine-1-carboxylate]: 80 nM and 102%.

Consider `COC(=O)N1CCC[C@H](NS(=O)(=O)N(C)C)[C@@H]1CO[C@H]1CC[C@@H](c2ccccc2)CC1` [Example 309, methyl (2R,3S)-3-((dimethylsulfamoyl)amino)-2-(((cis-4-phenylcyclohexyl)oxy)methyl)-piperidine-1-carboxylate], for which, for the setting “FLIPR TETRA, Fluo-4AM”, the EC50 stood at 3.1 nM and the Emax came out at 106%.

As to `CC(=O)N1CCC[C@H](NS(C)(=O)=O)[C@@H]1CO[C@H]1CC[C@@H](C)CC1` (relative stereo) [Example 128, N-(cis-1-acetyl-2-(((cis-4-methylcyclohexyl)oxy)methyl)piperidin-3-yl)methanesulfonamide], where the note is “FLIPR TETRA, Fluo-4AM”, the EC50 is 2400 nM and the Emax came to 88%. Turning to `COC(=O)N1CCC[C@H](NS(C)(=O)=O)[C@@H]1CO[C@H]1C[C@@H](c2ccccc2)C1` (relative stereo) [Example 194, methyl cis-3-((methylsulfonyl)amino)-2-(((cis-3-phenylcyclobutyl)oxy)methyl)piperidine-1-carboxylate], the Emax (FLIPR TETRA, Fluo-4AM) is 81%.

On to `CCNC(=O)N1CCC[C@H](NS(C)(=O)=O)[C@@H]1CO[C@H]1CC[C@@H](c2ccccc2C(F)(F)F)CC1` (relative stereo) [Example 249, cis-N-ethyl-3-((methylsulfonyl)amino)-2-(((cis-4-(2-(trifluoromethyl)phenyl)cyclohexyl)oxy)methyl)piperidine-1-carboxamide], for which, where the note is “FLIPR TETRA, Fluo-4AM”, the response was half-maximal at 0.61 nM (EC50) and the Emax turned out to be 99%. As for `COC(=O)N1CCC[C@H](NS(C)(=O)=O)[C@@H]1COC1CCN(c2ccccc2C(F)(F)F)CC1` (relative stereo) [Example 165, methyl cis-3-((methylsulfonyl)amino)-2-(((1-(2-(trifluoromethyl)phenyl)piperidin-4-yl)oxy)methyl)piperidine-1-carboxylate], under “FLIPR TETRA, Fluo-4AM”, a half-maximal response (EC50) required 3800 nM and the Emax was determined as 80%. On to `CC(C)(C)OC(=O)N1CCC[C@H](NS(C)(=O)=O)[C@@H]1CO[C@H]1CC[C@@H](c2ccccc2)CC1` (relative stereo) [Example 155, tert-butyl cis-3-((methylsulfonyl)amino)-2-(((cis-4-phenylcyclohexyl)oxy)methyl)piperidine-1-carboxylate], for which the Emax (FLIPR TETRA, Fluo-4AM) was determined as 95%.
